Data published in patent EP3851117A1, “INHIBITORS OF INTRACELLULAR BACTERIAL GROWTH AND PERSISTENCE AS ANTIBIOTICS” (Consejo Superior de Investigaciones Científicas (CSIC), priority 2020, dated 2021).
≈ marks a conversion by molar mass, not a printed value. Entries after “also recorded” stand apart in the source; their conditions may differ.

Legend:
[1] = tested on: S. Typhimurium (wild-type); assay: Spot dilution assay on PCN plates with antibiotic; assay type: cell-based; settings: MEC 5 µg/mL, ATM 0.125 µg/mL
Protocol: (§1) PCN plates for spot dilution assays were prepared by mixing 7.5 ml of sterile PCN medium (2x concentrated) at the desired pH and 7.5 ml of autoclaved agar (30 mg/mL). The mixture was supplemented with 0.01% (w/v) yeast extract (YE). Cultures were grown in PCN pH 4.6 medium overnight and adjusted to same optical density values. These cultures were serially 10-fold diluted. 5 µl of each dilution was spotted onto PCN plates with or without antibiotic added.

[2] = tested on: S. Typhimurium mutants lacking PBP3SAL; assay: Spot dilution assay on PCN plates with antibiotic; assay type: cell-based; settings: pH 4.6
Protocol: as §1

[3] = tested on: intra-phagosomal S. Typhimurium lacking PBP3SAL in RAW 264.7 macrophages; assay: Macrophage infection and colony-forming unit counting; assay type: cell-based; settings: 10 µg/mL added to infected macrophages; compared with bacteria lacking PBP3
Protocol: The murine macrophage line RAW 264.7 (400319, Cell Lines Service, CLS, https://clsgmbh.de/) was cultured in Dulbecco's modified Eagle's medium (DMEM) with 5% fetal bovine serum (FBS) and 4 mM glutamine in an incubator at 37°C in a 5% CO2 atmosphere. RAW 264.7 macrophages were seeded in 24-well plates (353047, Falcon) at a density of 2x10^5 cells/well and pre-cultured for 24 h before infection. Macrophages were activated with 2.5 ng/ml interferon-γ (315-05, Peprotech) 24 h prior infection. Culture medium was replaced by fresh medium without interferon-γ and infected with S. Typhimurium strains at a multiplicity of infection (MOI) of 10:1 during 10 min. Macrophages were washed with PBS supplemented with 0.5 mM MgCl2 and 0.9 mM CaCl2 (complete PBS) and extracellular non-phagocytosed bacteria were killed by incubation in medium containing gentamicin (100 µg/ml for 1 h, followed by 10 µg/ml for the remaining incubation). If indicated, aztreonam (ATM) (10 µg/mL) was added at 1 hpi. Infected macrophages were lysed at 1 and 8 hpi. Colony-forming units (CFU) were determined after two washes of the culture with complete PBS buffer, lysis with sterile solution containing 1% (w/v) Triton X 100 and 0.1% (w/v) sodium dodecyl sulfate (SDS) in PBS and plating on LB pH 7.0 or LB pH 4.6. The assays were repeated at least in three independent biological replicates.

[4] = tested on: S. Typhimurium bacteria lacking PBP3SAL; assay: BALB/c mice challenge, bacterial load in spleen; assay type: in vivo; settings: intraperitoneal, every 24 h
Protocol: (§2) Groups of three 8-week-old female BALB/c mice were inoculated with the following isogenic strains: MD5064 (PBP2SAL::3xFlag PBP3SAL::3xFlag), MD5063 (ΔPBP2, ΔPBP2SAL), MD5544 (ΔPBP2 ΔPBP2SAL pPBP2SAL::PBP2), MD5542 (ΔPBP3, ΔPBP3SAL and ΔPBP3 ΔPBP3SAL pPBP3SAL::PBP3). The doses used were 2x10^3 CFU in 200 µl of sterile PBS. Along four days, mice received intraperitoneally every 24 h a regime consisting in 10 mg mecillinam (MEC) or 2.5 mg aztreonam (ATM) per animal in 200 µl of sterile water. Mice were sacrificed four days post inoculation and spleens homogenized in 5 ml of sterile PBS. Aliquots (100 µl) of 10-fold serial dilutions of the homogenates were cultured in LB pH 4.6 plates to quantify the number of viable S. Typhimurium. To detect PBPs in vivo, spleen extracts from three mice were prepared at 72 hpi as described previously (Dominguez-Bernal, G. et al. Mol Microbiol. 2004; 53: 1437-1449). The protocols used in the study were approved by the Consejería de Medio Ambiente de la Comunidad de Madrid (ref. PROEX 110/19).

[5] = tested on: S. Typhimurium wild-type bacteria; assay: BALB/c mice challenge, bacterial load in spleen; assay type: in vivo; settings: intraperitoneal, every 24 h
Protocol: as §2

[6] = tested on: S. Typhimurium mutant lacking PBP3; assay: BALB/c mice challenge, bacterial load in spleen; assay type: in vivo; settings: intraperitoneal, every 24 h
Protocol: as §2

[7] = tested on: S. Typhimurium wild-type bacteria; assay: Antibiotic susceptibility with MIC strips (E-test) on PCN agar plates with 0.01% YE; assay type: cell-based; settings: for MIC: Salmonella enterica, TYPHIMURIUM; for susceptibility following the switch to acid pH: switch to acid pH (4.6), PBP3SAL expression
Source text: (§3) S. Typhimurium cultures grown in PCN 4.6 were normalized to an optical density at 600 nm (OD600) of 0.1 and diluted 1:10. One hundred twenty microliters of this dilution were spread onto PCN plates using glass beads. The assays were repeated at least in three independent biological replicates.

[8] = tested on: S. Typhimurium bacteria lacking PBP3 (ΔPBP3 mutant); assay: as above; assay type: cell-based; settings: Salmonella enterica, pH 4.6, read-out: MIC value
Protocol: as §3, with “Antibiotic susceptibility was determined using MIC strips (MIC Test Strip; Liofilchem) in PCN agar plates containing 0.01% YE at neutral or acid pH 4.6. S.” for “S.”

[9] = tested on: S. Typhimurium mutant lacking PBP2SAL; assay: Spot dilution assay on PCN plates with antibiotic; assay type: cell-based; settings: pH 4.6
Protocol: as §1

[10] = tested on: S. Typhimurium mutant lacking PBP2; assay: Spot dilution assay on PCN plates with antibiotic; assay type: cell-based
Protocol: as §1

[11] = tested on: S. Typhimurium bacteria lacking PBP2SAL; assay: BALB/c mice challenge, bacterial load in spleen; assay type: in vivo; settings: intraperitoneal, every 24 h
Protocol: as §2

[12] = tested on: S. Typhimurium mutant lacking PBP2; assay: BALB/c mice challenge, bacterial load in spleen; assay type: in vivo; settings: intraperitoneal, every 24 h
Protocol: as §2

[13] = pH 4.6, PCN-0.01% yeast extract

## C[C@H]1[C@H](NC(=O)/C(=N\OC(C)(C)C(=O)O)c2csc(N)n2)C(=O)N1S(=O)(=O)O [ATM, aztreonam]
[1]; [13]
  susceptibility (bacterial growth): not at pH 4.6; also recorded: resistant
[1]; pH 7.4
  susceptibility (bacterial growth): inhibit bacterial growth; also recorded: susceptible
[2]
  antimicrobial activity: showed antimicrobial activity
[3]
  susceptibility of intra-phagosomal bacteria: more susceptible
[4]
  bacterial loads: significant decrease of bacterial loads
[5]
  load of bacteria in spleen: did not result in a statistically significant decrease
[6]
  effect on bacterial loads: lesser effect
[7]; pH 4.6
  MIC: 0.125 µg/mL (≈ 0.287 µM)
[7]; pH 7.4
  MIC: < 0.016 µg/mL
[8]
  MIC: 0.75 µg/mL (≈ 1.72 µM)

## CC1(C)S[C@@H]2[C@H](/N=C/N3CCCCCC3)C(=O)N2[C@H]1C(=O)O [MEC, mecillinam]
[1]; [13]
  susceptibility (bacterial growth): not at pH 4.6
[1]; pH 7.4
  susceptibility (bacterial growth): inhibit bacterial growth
[9]
  susceptibility: does not alter susceptibility
[10]; pH 4.6
  susceptibility: does not alter susceptibility
[10]; pH 7.4
  susceptibility: resistant
[5]
  load of bacteria in spleen: did not result in a statistically significant decrease; also recorded: slightly effect of reduced viability
[11]
  bacterial loads: significant decrease of bacterial loads
[12]
  effect on bacterial loads: lesser effect

## CO/N=C(\C(=O)N[C@@H]1C(=O)N2C(C(=O)O)=C(COC(C)=O)CS[C@H]12)c1csc(N)n1 [cefotaxime]
[7]
  susceptibility following the switch to acid pH: decreased susceptibility

## CC(C)(O/N=C(\C(=O)N[C@@H]1C(=O)N2C(C(=O)[O-])=C(C[n+]3ccccc3)CS[C@H]12)c1csc(N)n1)C(=O)O [ceftazidime]
[7]
  susceptibility following the switch to acid pH: decreased susceptibility

## CO/N=C(\C(=O)N[C@@H]1C(=O)N2C(C(=O)O)=C(COC(N)=O)CS[C@H]12)c1ccco1 [cefuroxime]
[7]
  susceptibility following the switch to acid pH: decreased susceptibility

## CC(=O)OCC1=C(C(=O)O)N2C(=O)[C@@H](NC(=O)Cc3cccs3)[C@H]2SC1 [cephalotin]
[7]
  susceptibility following the switch to acid pH: decreased susceptibility
